From US20140329863A1 (priority 2011, published 2014)

Test system: PrP^Sc in nondividing ScN2a-cl3 cells
Assay: not given
Format: cell-based, mouse
Conditions: read-out: Non-Dividing ELISA EC50 (μM) Mean (n = 3); ScN2a-c13 non-dividing cells; mean n = 3

| SMILES | EC50 [µM] |
| --- | --- |
| COc1ccc(Nc2nc(-c3ccc(OC)c(OC)c3)cs2)nc1 [compound 13, [4-(3,4-dimethoxyphenyl)-thiazol-2-yl]-(5-methoxypyridin-2-yl)-amine] | > 32 |
| Cc1ccc(Nc2nc(-c3ccccc3)cs2)nc1 [compound 25, (5-Methylpyridin-2-yl)-(4-phenylthiazol-2-yl)-amine] | > 32 |
| c1ccc(-c2ccc(-c3csc(Nc4cc5ccccc5cn4)n3)s2)nc1 [compound 34, Isoquinolin-3-yl-[4-(5-pyridin-2-yl-thiophen-2-yl)-thiazol-2-yl]-amine] | > 32 |
| c1ccc(-c2cc(-c3csc(Nc4ccccn4)n3)on2)cc1 [compound 42, [4-(3-Phenylisoxazol-5-yl)-thiazol-2-yl]pyridin-2-yl-amine] | > 32 |
| Cc1cccc(Nc2nc(-c3cc(-c4ccccc4)no3)cs2)n1 [compound 44, (6-Methylpyridin-2-yl)-[4-(3-phenylisoxazol-5-yl)-thiazol-2-yl]-amine] | > 32 |
| c1ccc(-c2cc(-c3csc(Nc4ccncc4)n3)on2)cc1 [compound 45, [4-(3-Phenylisoxazol-5-yl)-thiazol-2-yl]-pyridin-4-yl-amine] | > 32 |

Test system: PrP^Sc in dividing ScN2a-cl3 cells
Assay: not given
Format: cell-based, mouse
Parameters: Dividing ELISA pEC50 (μM) 1st Expt. / Dividing ELISA pEC50 (μM) 2nd Expt. / Dividing ELISA pEC50 (μM) 3rd Expt. / Dividing ELISA pEC50 (μM) Mean: unit not given here
Conditions: ScN2a-cl3 dividing cells; 1st determination

| SMILES | Dividing ELISA pEC50 (μM) 1st Expt. |
| --- | --- |
| Cc1ccc(Nc2nc(-c3ccccc3)cs2)nc1 [compound 25, (5-Methylpyridin-2-yl)-(4-phenylthiazol-2-yl)-amine] | 4.89 |
| c1ccc(-c2ccc(-c3csc(Nc4cc5ccccc5cn4)n3)s2)nc1 [compound 34, Isoquinolin-3-yl-[4-(5-pyridin-2-yl-thiophen-2-yl)-thiazol-2-yl]-amine] | 5.65 |
| c1ccc(-c2cc(-c3csc(Nc4ccccn4)n3)on2)cc1 [compound 42, [4-(3-Phenylisoxazol-5-yl)-thiazol-2-yl]pyridin-2-yl-amine] | 6.20 |
| Cc1cccc(Nc2nc(-c3cc(-c4ccccc4)no3)cs2)n1 [compound 44, (6-Methylpyridin-2-yl)-[4-(3-phenylisoxazol-5-yl)-thiazol-2-yl]-amine] | 6.03 |
| c1ccc(-c2cc(-c3csc(Nc4ccncc4)n3)on2)cc1 [compound 45, [4-(3-Phenylisoxazol-5-yl)-thiazol-2-yl]-pyridin-4-yl-amine] | 5.50 |

Same assay, conditions: ScN2a-cl3 dividing cells; 2nd determination

| SMILES | Dividing ELISA pEC50 (μM) 2nd Expt. |
| --- | --- |
| Cc1ccc(Nc2nc(-c3ccccc3)cs2)nc1 [compound 25, (5-Methylpyridin-2-yl)-(4-phenylthiazol-2-yl)-amine] | 5.31 |
| c1ccc(-c2ccc(-c3csc(Nc4cc5ccccc5cn4)n3)s2)nc1 [compound 34, Isoquinolin-3-yl-[4-(5-pyridin-2-yl-thiophen-2-yl)-thiazol-2-yl]-amine] | 5.79 |
| c1ccc(-c2cc(-c3csc(Nc4ccccn4)n3)on2)cc1 [compound 42, [4-(3-Phenylisoxazol-5-yl)-thiazol-2-yl]pyridin-2-yl-amine] | 6.22 |
| Cc1cccc(Nc2nc(-c3cc(-c4ccccc4)no3)cs2)n1 [compound 44, (6-Methylpyridin-2-yl)-[4-(3-phenylisoxazol-5-yl)-thiazol-2-yl]-amine] | 6.13 |
| c1ccc(-c2cc(-c3csc(Nc4ccncc4)n3)on2)cc1 [compound 45, [4-(3-Phenylisoxazol-5-yl)-thiazol-2-yl]-pyridin-4-yl-amine] | 5.49 |

Same assay, conditions: ScN2a-cl3 dividing cells; 3rd determination

| SMILES | Dividing ELISA pEC50 (μM) 3rd Expt. |
| --- | --- |
| Cc1ccc(Nc2nc(-c3ccccc3)cs2)nc1 [compound 25, (5-Methylpyridin-2-yl)-(4-phenylthiazol-2-yl)-amine] | 5.24 |
| c1ccc(-c2ccc(-c3csc(Nc4cc5ccccc5cn4)n3)s2)nc1 [compound 34, Isoquinolin-3-yl-[4-(5-pyridin-2-yl-thiophen-2-yl)-thiazol-2-yl]-amine] | 5.67 |
| c1ccc(-c2cc(-c3csc(Nc4ccccn4)n3)on2)cc1 [compound 42, [4-(3-Phenylisoxazol-5-yl)-thiazol-2-yl]pyridin-2-yl-amine] | 6.23 |
| Cc1cccc(Nc2nc(-c3cc(-c4ccccc4)no3)cs2)n1 [compound 44, (6-Methylpyridin-2-yl)-[4-(3-phenylisoxazol-5-yl)-thiazol-2-yl]-amine] | 6.10 |
| c1ccc(-c2cc(-c3csc(Nc4ccncc4)n3)on2)cc1 [compound 45, [4-(3-Phenylisoxazol-5-yl)-thiazol-2-yl]-pyridin-4-yl-amine] | 5.17 |

Same assay, conditions: ScN2a-cl3 dividing cells; mean of three determinations

| SMILES | Dividing ELISA pEC50 (μM) Mean |
| --- | --- |
| Cc1ccc(Nc2nc(-c3ccccc3)cs2)nc1 [compound 25, (5-Methylpyridin-2-yl)-(4-phenylthiazol-2-yl)-amine] | 5.15 |
| c1ccc(-c2ccc(-c3csc(Nc4cc5ccccc5cn4)n3)s2)nc1 [compound 34, Isoquinolin-3-yl-[4-(5-pyridin-2-yl-thiophen-2-yl)-thiazol-2-yl]-amine] | 5.70 |
| c1ccc(-c2cc(-c3csc(Nc4ccccn4)n3)on2)cc1 [compound 42, [4-(3-Phenylisoxazol-5-yl)-thiazol-2-yl]pyridin-2-yl-amine] | 6.22 |
| Cc1cccc(Nc2nc(-c3cc(-c4ccccc4)no3)cs2)n1 [compound 44, (6-Methylpyridin-2-yl)-[4-(3-phenylisoxazol-5-yl)-thiazol-2-yl]-amine] | 6.09 |
| c1ccc(-c2cc(-c3csc(Nc4ccncc4)n3)on2)cc1 [compound 45, [4-(3-Phenylisoxazol-5-yl)-thiazol-2-yl]-pyridin-4-yl-amine] | 5.38 |

Same assay, conditions: read-out: Antiprion activity ScN2a-cl3 EC50; ScN2a-cl3 cells

| SMILES | EC50 [µM] |
| --- | --- |
| Cc1ccc(Nc2nc(-c3ccccc3)cs2)nc1 [compound 25, (5-Methylpyridin-2-yl)-(4-phenylthiazol-2-yl)-amine] | 7.88 |

Same assay, conditions: read-out: Dividing ELISA EC50 (μM) 1st Expt.; ScN2a-cl3 dividing cells; 1st determination

| SMILES | EC50 [µM] |
| --- | --- |
| Cc1ccc(Nc2nc(-c3ccccc3)cs2)nc1 [compound 25, (5-Methylpyridin-2-yl)-(4-phenylthiazol-2-yl)-amine] | 13 |
| c1ccc(-c2ccc(-c3csc(Nc4cc5ccccc5cn4)n3)s2)nc1 [compound 34, Isoquinolin-3-yl-[4-(5-pyridin-2-yl-thiophen-2-yl)-thiazol-2-yl]-amine] | 2.25 |
| c1ccc(-c2cc(-c3csc(Nc4ccccn4)n3)on2)cc1 [compound 42, [4-(3-Phenylisoxazol-5-yl)-thiazol-2-yl]pyridin-2-yl-amine] | 0.629 |
| Cc1cccc(Nc2nc(-c3cc(-c4ccccc4)no3)cs2)n1 [compound 44, (6-Methylpyridin-2-yl)-[4-(3-phenylisoxazol-5-yl)-thiazol-2-yl]-amine] | 0.926 |
| c1ccc(-c2cc(-c3csc(Nc4ccncc4)n3)on2)cc1 [compound 45, [4-(3-Phenylisoxazol-5-yl)-thiazol-2-yl]-pyridin-4-yl-amine] | 3.16 |

Same assay, conditions: read-out: Dividing ELISA EC50 (μM) 2nd Expt.; ScN2a-cl3 dividing cells; 2nd determination

| SMILES | EC50 [µM] |
| --- | --- |
| Cc1ccc(Nc2nc(-c3ccccc3)cs2)nc1 [compound 25, (5-Methylpyridin-2-yl)-(4-phenylthiazol-2-yl)-amine] | 4.9 |
| c1ccc(-c2ccc(-c3csc(Nc4cc5ccccc5cn4)n3)s2)nc1 [compound 34, Isoquinolin-3-yl-[4-(5-pyridin-2-yl-thiophen-2-yl)-thiazol-2-yl]-amine] | 1.61 |
| c1ccc(-c2cc(-c3csc(Nc4ccccn4)n3)on2)cc1 [compound 42, [4-(3-Phenylisoxazol-5-yl)-thiazol-2-yl]pyridin-2-yl-amine] | 0.599 |
| Cc1cccc(Nc2nc(-c3cc(-c4ccccc4)no3)cs2)n1 [compound 44, (6-Methylpyridin-2-yl)-[4-(3-phenylisoxazol-5-yl)-thiazol-2-yl]-amine] | 0.733 |
| c1ccc(-c2cc(-c3csc(Nc4ccncc4)n3)on2)cc1 [compound 45, [4-(3-Phenylisoxazol-5-yl)-thiazol-2-yl]-pyridin-4-yl-amine] | 3.25 |

Same assay, conditions: read-out: Dividing ELISA EC50 (μM) 3rd Expt.; ScN2a-cl3 dividing cells; 3rd determination

| SMILES | EC50 [µM] |
| --- | --- |
| COc1ccc(Nc2nc(-c3ccc(OC)c(OC)c3)cs2)nc1 [compound 13, [4-(3,4-dimethoxyphenyl)-thiazol-2-yl]-(5-methoxypyridin-2-yl)-amine] | 0.917 |
| Cc1ccc(Nc2nc(-c3ccccc3)cs2)nc1 [compound 25, (5-Methylpyridin-2-yl)-(4-phenylthiazol-2-yl)-amine] | 5.74 |
| c1ccc(-c2ccc(-c3csc(Nc4cc5ccccc5cn4)n3)s2)nc1 [compound 34, Isoquinolin-3-yl-[4-(5-pyridin-2-yl-thiophen-2-yl)-thiazol-2-yl]-amine] | 2.16 |
| c1ccc(-c2cc(-c3csc(Nc4ccccn4)n3)on2)cc1 [compound 42, [4-(3-Phenylisoxazol-5-yl)-thiazol-2-yl]pyridin-2-yl-amine] | 0.585 |
| Cc1cccc(Nc2nc(-c3cc(-c4ccccc4)no3)cs2)n1 [compound 44, (6-Methylpyridin-2-yl)-[4-(3-phenylisoxazol-5-yl)-thiazol-2-yl]-amine] | 0.794 |
| c1ccc(-c2cc(-c3csc(Nc4ccncc4)n3)on2)cc1 [compound 45, [4-(3-Phenylisoxazol-5-yl)-thiazol-2-yl]-pyridin-4-yl-amine] | 6.83 |

Same assay, conditions: read-out: Dividing ELISA EC50 (μM) Mean; ScN2a-cl3 dividing cells; mean of three determinations

| SMILES | EC50 [µM] |
| --- | --- |
| Cc1ccc(Nc2nc(-c3ccccc3)cs2)nc1 [compound 25, (5-Methylpyridin-2-yl)-(4-phenylthiazol-2-yl)-amine] | 7.88 |
| c1ccc(-c2ccc(-c3csc(Nc4cc5ccccc5cn4)n3)s2)nc1 [compound 34, Isoquinolin-3-yl-[4-(5-pyridin-2-yl-thiophen-2-yl)-thiazol-2-yl]-amine] | 2.01 |
| c1ccc(-c2cc(-c3csc(Nc4ccccn4)n3)on2)cc1 [compound 42, [4-(3-Phenylisoxazol-5-yl)-thiazol-2-yl]pyridin-2-yl-amine] | 0.604 |
| Cc1cccc(Nc2nc(-c3cc(-c4ccccc4)no3)cs2)n1 [compound 44, (6-Methylpyridin-2-yl)-[4-(3-phenylisoxazol-5-yl)-thiazol-2-yl]-amine] | 0.818 |
| c1ccc(-c2cc(-c3csc(Nc4ccncc4)n3)on2)cc1 [compound 45, [4-(3-Phenylisoxazol-5-yl)-thiazol-2-yl]-pyridin-4-yl-amine] | 4.42 |

Test system: not listed separately
Assay: Hepatic microsomal stability, rat
Conditions: […]

| SMILES | Microsome stability T1/2 [min] |
| --- | --- |
| COc1ccc(Nc2nc(-c3ccc(OC)c(OC)c3)cs2)nc1 [compound 13, [4-(3,4-dimethoxyphenyl)-thiazol-2-yl]-(5-methoxypyridin-2-yl)-amine] | 45 |
| Cc1ccc(Nc2nc(-c3ccccc3)cs2)nc1 [compound 25, (5-Methylpyridin-2-yl)-(4-phenylthiazol-2-yl)-amine] | 10 |

Test system: not given
Assay: not given
Conditions: not given

| SMILES | melting point [°C] |
| --- | --- |
| c1ccc(-c2ccc(-c3csc(Nc4cc5ccccc5cn4)n3)s2)nc1 [compound 34, Isoquinolin-3-yl-[4-(5-pyridin-2-yl-thiophen-2-yl)-thiazol-2-yl]-amine] | 246 to 248 |
| c1ccc(-c2cc(-c3csc(Nc4ccccn4)n3)on2)cc1 [compound 42, [4-(3-Phenylisoxazol-5-yl)-thiazol-2-yl]pyridin-2-yl-amine] | 211 to 215 |
| Cc1cccc(Nc2nc(-c3cc(-c4ccccc4)no3)cs2)n1 [compound 44, (6-Methylpyridin-2-yl)-[4-(3-phenylisoxazol-5-yl)-thiazol-2-yl]-amine] | 291 to 293 |
| c1ccc(-c2cc(-c3csc(Nc4ccncc4)n3)on2)cc1 [compound 45, [4-(3-Phenylisoxazol-5-yl)-thiazol-2-yl]-pyridin-4-yl-amine] | 269 to 270 |

Test system: N2a-cl3 cells
Assay: cells
Conditions: Mus musculus, N2a-cl3, read-out: Dividing Calcein EC50 (μM) Mean (n = 3)

| SMILES | EC50 [µM] |
| --- | --- |
| COc1ccc(Nc2nc(-c3ccc(OC)c(OC)c3)cs2)nc1 [compound 13, [4-(3,4-dimethoxyphenyl)-thiazol-2-yl]-(5-methoxypyridin-2-yl)-amine] | > 32 |
| Cc1ccc(Nc2nc(-c3ccccc3)cs2)nc1 [compound 25, (5-Methylpyridin-2-yl)-(4-phenylthiazol-2-yl)-amine] | > 32 |
| c1ccc(-c2ccc(-c3csc(Nc4cc5ccccc5cn4)n3)s2)nc1 [compound 34, Isoquinolin-3-yl-[4-(5-pyridin-2-yl-thiophen-2-yl)-thiazol-2-yl]-amine] | > 32 |
| c1ccc(-c2cc(-c3csc(Nc4ccccn4)n3)on2)cc1 [compound 42, [4-(3-Phenylisoxazol-5-yl)-thiazol-2-yl]pyridin-2-yl-amine] | > 32 |
| Cc1cccc(Nc2nc(-c3cc(-c4ccccc4)no3)cs2)n1 [compound 44, (6-Methylpyridin-2-yl)-[4-(3-phenylisoxazol-5-yl)-thiazol-2-yl]-amine] | > 32 |
| c1ccc(-c2cc(-c3csc(Nc4ccncc4)n3)on2)cc1 [compound 45, [4-(3-Phenylisoxazol-5-yl)-thiazol-2-yl]-pyridin-4-yl-amine] | > 32 |
